pIC50: −log10 of the molar value.

As usually defined, the pIC50 is the IC50 on a negative log10 scale, so that one unit is a factor of ten.

In the assay the target is T1, Seed linoleate 13S-lipoxygenase-1 (Glycine max, UniProt P08170).
T1 sequence (P08170 whole entry): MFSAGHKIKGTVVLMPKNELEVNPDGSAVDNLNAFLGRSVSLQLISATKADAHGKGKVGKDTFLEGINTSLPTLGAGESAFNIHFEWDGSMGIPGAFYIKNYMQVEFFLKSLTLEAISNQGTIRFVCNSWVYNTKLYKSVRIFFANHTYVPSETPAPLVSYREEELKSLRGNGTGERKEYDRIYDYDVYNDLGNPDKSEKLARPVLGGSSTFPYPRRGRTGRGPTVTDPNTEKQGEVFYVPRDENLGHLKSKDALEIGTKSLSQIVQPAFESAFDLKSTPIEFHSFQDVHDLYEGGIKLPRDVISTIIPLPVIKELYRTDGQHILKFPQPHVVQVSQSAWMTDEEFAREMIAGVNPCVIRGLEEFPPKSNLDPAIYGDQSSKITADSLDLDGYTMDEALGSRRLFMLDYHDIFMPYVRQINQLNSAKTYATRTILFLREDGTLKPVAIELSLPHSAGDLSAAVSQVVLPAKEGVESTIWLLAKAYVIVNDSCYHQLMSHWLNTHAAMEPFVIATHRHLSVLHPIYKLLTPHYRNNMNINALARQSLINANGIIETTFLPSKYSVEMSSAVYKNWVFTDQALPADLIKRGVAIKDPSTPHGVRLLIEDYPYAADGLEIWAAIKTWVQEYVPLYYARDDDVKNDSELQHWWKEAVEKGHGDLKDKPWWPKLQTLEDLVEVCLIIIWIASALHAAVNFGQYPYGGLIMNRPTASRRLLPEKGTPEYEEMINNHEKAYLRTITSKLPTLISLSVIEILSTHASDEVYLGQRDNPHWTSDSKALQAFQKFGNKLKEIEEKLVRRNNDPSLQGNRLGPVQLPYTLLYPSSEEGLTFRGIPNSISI
In words: LOX Activity Assay. The conditions noted are these: 25 °C. On the procedure: Enzyme activity was monitored by UV analysis. 0.05 cm^3 of enzyme solution was added to a cuvette containing 2 cm^3 linoleic acid solution and the appropriate amounts of buffer and inhibitor solutions in thermostatic water bath at 25°C. There was no pre-incubation time of the enzyme with inhibitor solution. The activity of the enzyme was determined by monitoring the increase in the absorption caused by the oxidation of linoleic acid at 234 nm and 25°C (ε = 25 000 M^−1 cm^−1). One standard solution of complexes in DMSO (10^-2 M) was used for theinhibition activity experiments (three sets). In this case, the substrate concentration was kept constant (0.3 mM), while the amounts of buffer and inhibitor solutions varied according to the inhibitor final concentration needed(0.5-30 μM or 0.15-9 μL from standard solutions). The total experiment volume was 3 cm^3.
As to `c1ccc([PH]([Au][S]C2=NCCS2)(c2ccccc2)c2ccccc2)cc1` [[Au(tpp)(mtzd)] (2)], the pIC50 is 4.73. In turn, `[Cl][Au][PH](c1ccccc1)(c1ccccc1)c1ccccc1` [[Au(tpp)Cl] (1)] had a negative logarithm of the IC50 (pIC50) of 5.92.

Consider `Clc1ccc2sc([S][Au][PH](c3ccccc3)(c3ccccc3)c3ccccc3)nc2c1` [[Au(tpp)(Clmbzt)] (4)], for which the pIC50 is 4.80.

With `c1ccc([PH]([Au][S]c2nc3ccccc3s2)(c2ccccc2)c2ccccc2)cc1` [[Au(tpp)(mbzt)] (3)], the pIC50 is 4.40.

The values are drawn from BindingDB's records for doi:10.3109/14756366.2010.529807 (University of Ioannina, 2011).
